From publication PMC3763859 (ACS medicinal chemistry letters, 2013)

Tested on: SK-BR-3 cells
Assay: synergy studies with c-Src inhibitor 1 in SK-BR-3
Format: cell-based
Details: 2 μM 1, 10 nM panobinostat

## Cc1[nH]c2ccccc2c1CCNCc1ccc(/C=C/C(=O)NO)cc1 [panobinostat]
  synergy with c-Src inhibitor 1: highly synergistic
